Reference: patent US20080045504A1, “Benzonitrile Derivatives to Treat Musculoskeletal Frailty” (PFIZER PRODUCTS INC., priority 2004, published 2008)

Biological target: T1, recombinant human androgen receptor (hAR) (Homo sapiens, UniProt P10275)
T1 construct: made in house; host or cells: baculovirus/Sf9 insect cells (crude extract)
T1 sequence (P10275 1-920): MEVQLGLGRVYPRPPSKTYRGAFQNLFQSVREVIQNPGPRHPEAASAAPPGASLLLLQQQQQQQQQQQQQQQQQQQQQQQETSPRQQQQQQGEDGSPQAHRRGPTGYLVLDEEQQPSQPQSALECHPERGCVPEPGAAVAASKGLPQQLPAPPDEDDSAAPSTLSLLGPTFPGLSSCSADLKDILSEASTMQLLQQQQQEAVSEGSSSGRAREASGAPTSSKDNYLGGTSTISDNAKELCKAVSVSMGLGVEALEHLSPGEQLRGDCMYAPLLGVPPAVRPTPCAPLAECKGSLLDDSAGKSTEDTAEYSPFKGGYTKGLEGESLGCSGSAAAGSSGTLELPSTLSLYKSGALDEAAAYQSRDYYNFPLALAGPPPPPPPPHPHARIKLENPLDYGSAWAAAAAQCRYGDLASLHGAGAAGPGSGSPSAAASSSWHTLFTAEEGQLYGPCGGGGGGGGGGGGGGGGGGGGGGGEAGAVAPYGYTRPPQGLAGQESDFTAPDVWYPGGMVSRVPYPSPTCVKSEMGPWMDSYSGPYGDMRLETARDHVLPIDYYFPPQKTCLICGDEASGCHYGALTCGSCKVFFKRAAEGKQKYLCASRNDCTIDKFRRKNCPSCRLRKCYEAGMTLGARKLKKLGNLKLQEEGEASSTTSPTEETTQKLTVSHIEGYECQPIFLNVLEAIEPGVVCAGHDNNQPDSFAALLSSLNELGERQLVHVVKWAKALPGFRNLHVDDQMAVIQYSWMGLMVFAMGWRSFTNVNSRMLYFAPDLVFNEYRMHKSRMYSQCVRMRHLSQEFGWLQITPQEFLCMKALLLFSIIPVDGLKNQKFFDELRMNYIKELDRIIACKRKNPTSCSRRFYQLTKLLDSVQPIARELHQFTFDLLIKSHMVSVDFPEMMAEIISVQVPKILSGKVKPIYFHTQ
Assay: Human androgen receptor binding analysis (3H-DHT competitive binding)
Experimental: The following is a brief description of the assay that determines the affinity of a compound for the recombinant human androgen receptor (hAR). Competitive binding analysis is performed on baculovirus/Sf9 generated hAR extracts in the presence or absence of differing concentrations of drug and a fixed concentration of ^3H-dihydrotestosterone (^3H-DHT) as tracer. This binding assay method is a modification of a protocol previously described (Chang, et. al. J. Steroid Biochem. 20(1):11-17 1984). Briefly, progressively decreasing concentrations of compounds are incubated in the presence of hAR extract (Chang et al. P.N.A.S. Vol. 89, pp. 5546-5950, 1992), hydroxylapatite and 1 nM ^3H-DHT for one hour at 4° C. Subsequently, the binding reactions are washed three times to completely remove excess unbound ^3H-DHT. hAR bound ^3H-DHT levels are determined in the presence of compounds (=competitive binding) and compared to levels bound when no competitor is present (=maximum binding). Compound binding affinity to the hAR is expressed as the concentration of compound at which one half of the maximum binding is inhibited (the IC50).

| Structure (SMILES) | IC50 [nM] |
| --- | --- |
| CC[C@H](C)N(C)c1ccc(C#N)c(C(F)(F)F)c1 [Example 26] | 5.47 |
| CC(C)N(C)c1ccc(C#N)c(C(F)(F)F)c1 [Example 40, 4-(Isopropyl-methyl-amino)-2-trifluoromethyl-benzonitrile] | 0.99 |
| CCC1CCCCN1c1ccc(C#N)c(C(F)(F)F)c1 (centres unmarked) [Example 6, 4-(2-Ethyl-piperidin-1-yl)-2-trifluoromethyl-benzonitrile] | 1.83 |
| CCCN(CCC)c1cc(F)c(C#N)c(F)c1 [Example 53, 2,6-Difluoro-4-(dipropyl-amino)-benzonitrile] | 4.06 |
| CCCN(c1ccc(C#N)c(Cl)c1)[C@H](C)CC [Example 10, 4-((R)-sec-Butyl-propyl-amino)-2-chloro-benzonitrile] | 3.28 |
| CC1CCCN1c1ccc(C#N)c(C(F)(F)F)c1 (centres unmarked) [Example 28, 4-(2-Methyl-pyrrolidin-1-yl)-2-trifluoromethyl-benzonitrile] | 1.5 |
| C=CCN(C)c1ccc(C#N)c(C(F)(F)F)c1 [Example 33, 4-(Allyl-methyl-amino)-2-trifluoromethyl-benzonitrile] | 3.82 |
| N#Cc1ccc(N2CCCCCC2)cc1C#N [Example 52, 4-Azepan-1-yl-phthalonitrile] | 5.04 |
| CCCCN(CCC)c1ccc(C#N)c(C(F)(F)F)c1 [Example 39, 4-(Butyl-propyl-amino)-2-trifluoromethyl-benzonitrile] | 2 |
| CCCCN(CCCC)c1ccc(C#N)c(C(F)(F)F)c1 [Example 44, 4-(Dibutyl-amino)-2-trifluoromethyl-benzonitrile] | 12.8 |
| CC[C@@H](C)N(CC)c1ccc(C#N)c(C(F)(F)F)c1 [Example 12, 4-((R)-sec-Butyl-ethyl-amino)-2-trifluoromethyl-benzonitrile] | 3.21 |
| CCCN(CCC)c1ccc(C#N)c(C(F)(F)F)c1 [Example 15, 4-Dipropylamino-2-trifluoromethyl-benzonitrile] | 1.68 |
| CCOC[C@H]1CCCN1c1ccc(C#N)c(C(F)(F)F)c1 [Example 35, 4-(2(R)-(Ethoxy-methyl)-pyrrolidin-1-yl)-2-trifluoromethyl-benzonitrile] | 2.07 |
| N#Cc1ccc(N2CCCCC2CO)cc1C(F)(F)F (centres unmarked) [Example 42, 4-(2-Hydroxymethyl-piperidin-1-yl)-2-trifluoromethyl-benzonitrile] | 15.3 |
| CCCN(c1ccc(C#N)c(C#N)c1)[C@H](C)CC [Example 11, 4-((R)-sec-Butyl-propyl-amino)-phthalonitrile] | 8 |
| CCN(CC)c1ccc(C#N)c(Cl)c1 [Example 47, 2-Chloro-4-(diethyl-amino)-benzonitrile] | 2.98 |
| CC(C)[C@@H](C)N(C)c1ccc(C#N)c(Cl)c1 [Example 25, 2-Chloro-4-[(1-(R), 2-dimethyl-propyl)-methyl-amino]-benzonitrile] | 45.6 |
| COC[C@H]1CCCN1c1ccc(C#N)c(C(F)(F)F)c1 [Example 37, 4-(2(R)-(Methoxy-methyl)-pyrrolidin-1-yl)-2-trifluoromethyl-benzonitrile] | 10.1 |
| CCC1CCCCN1c1ccc(C#N)c(C#N)c1 (centres unmarked) [Example 5, 4-(2-Ethyl-piperidin-1-yl)-phthalonitrile] | 5.35 |
| CC(C)N(C)c1ccc(C#N)c(C#N)c1 [Example 50, 4-(Isopropyl-methyl-amino)-phthalonitrile] | 8.23 |
| COC[C@H]1CCCN1c1ccc(C#N)c(C#N)c1 [Example 51, 4-(2-(R)-Methoxymethyl-pyrrolidin-1-yl)-phthalonitrile] | 12.4 |
| CC[C@H]1CCCCN1c1ccc(C#N)c(C#N)c1 [Example 4, 4-(2-(S)-Ethyl-piperidin-1-yl)-phthalonitrile] | 7.75 |
| CCC(C)N(C)c1ccc(C#N)c(C(F)(F)F)c1 (centres unmarked) [Example 17, 4-(sec-Butyl-methyl-amino)-2-trifluoromethyl-benzonitrile] | 3.99 |
| CC[C@@H](C)N(CC)c1ccc(C#N)c(Cl)c1 [Example 8, 4-((R)-sec-Butyl-ethyl-amino)-2-chloro-benzonitrile] | 1.4 |

| Structure (SMILES) | IC50 [nM] |
| --- | --- |
| CC[C@@H](C)N(C)c1ccc(C#N)c(C#N)c1 [Example 13, 4-((R)-sec-Butyl-methyl-amino)-phthalonitrile] | 2.9 |
| CC[C@H]1CCCCN1c1ccc(C#N)c(Cl)c1 [Example 3, 2-Chloro-4-(2-(S)-ethyl-piperidin-1-yl)-benzonitrile] | 3.67 |
| CCN(c1ccc(C#N)c(C#N)c1)C(C)C [Example 16, 4-(Ethyl-isopropyl-amino)-phthalonitrile] | 3.06 |
| CCCN(c1ccc(C#N)c(Cl)c1)C(C)C [Example 46, 2-Chloro-4-(isopropyl-propyl-amino)-benzonitrile] | 9.79 |
| CCCN(c1ccc(C#N)c(C#N)c1)C(C)CC (centres unmarked) [Example 18, 4-(sec-Butyl-propyl-amino)-phthalonitrile] | 2.49 |
| CCN(c1ccc(C#N)c(Cl)c1)C(C)C [Example 48, 2-Chloro-4-(ethyl-isopropyl-amino)-benzonitrile] | 19.7 |
| CCCCN(CC)c1ccc(C#N)c(C(F)(F)F)c1 [Example 43, 4-(Butyl-ethyl-amino)-2-trifluoromethyl-benzonitrile] | 7.58 |
| CCC1CC(CO)CCN1c1ccc(C#N)c(C(F)(F)F)c1 (centres unmarked) [Example 31, 4-(2-Ethyl-4-hydroxymethyl-piperidin-1-yl)-2-trifluoromethyl-benzonitrile] | 9.63 |
| CCC(C)N(CC)c1ccc(C#N)c(C(F)(F)F)c1 (centres unmarked) [Example 21, 4-(sec-Butyl-ethyl-amino)-2-trifluoromethyl-benzonitrile] | 1.71 |
| CC[C@H]1CCCCN1c1cc(F)c(C#N)c(F)c1 [Example 2, 4-(2-(S)-Ethyl-piperidin-1-yl)-2,6-difluoro-benzonitrile] | 1.15 |
| CC1CCCCN1c1ccc(C#N)c(C(F)(F)F)c1 (centres unmarked) [Example 34, 4-(2-Methyl-piperidin-1-yl)-2-trifluoromethyl-benzonitrile] | 24.8 |
| N#Cc1ccc(N2CCCCC2CCO)cc1C(F)(F)F (centres unmarked) [Example 36, 4-(2-(2-Hydroxyethyl)-piperidin-1-yl)-2-trifluoromethyl-benzonitrile] | 27.7 |
| CCCCCN(CC)c1ccc(C#N)c(C(F)(F)F)c1 [Example 38, 4-(Ethyl-pentyl-amino)-2-trifluoromethyl-benzonitrile] | 11.6 |
| CC[C@@H](C)N(C)c1ccc(C#N)c(Cl)c1 [Example 9, 4-((R)-sec-Butyl-methyl-amino)-2-chloro-benzonitrile] | 3.63 |
| CCCN(CC)c1ccc(C#N)c(Cl)c1 [Example 22, 2-Chloro-4-(ethyl-propyl-amino)-benzonitrile] | 5.4 |
| CC[C@@H](C)N(CC)c1ccc(C#N)c(C#N)c1 [Example 14] | 3.8 |
| CCN(CC)c1ccc(C#N)c(C(F)(F)F)c1 [Example 20, 4-Diethylamino-2-trifluoromethyl-benzonitrile] | 2.62 |
| CCCC1CCCCN1c1ccc(C#N)c(C(F)(F)F)c1 (centres unmarked) [Example 30, 4-(2-Propyl-piperidin-1-yl)-2-trifluoromethyl-benzonitrile] | 2.33 |
| CCCN(c1ccc(C#N)c(C(F)(F)F)c1)[C@H](C)CC [Example 32, 4-((R)-sec-Butyl-propyl-amino)-2-trifluoromethyl-benzonitrile] | 5.97 |
| N#Cc1ccc(N2CCC[C@@H]2CO)cc1C(F)(F)F [Example 45, 4-(2(R)-(Hydroxy-methyl)-pyrrolidin-1-yl)-2-trifluoromethyl-benzonitrile] | 22.7 |
| CCCCCN(CCC)c1ccc(C#N)c(C(F)(F)F)c1 [Example 41, 4-(Pentyl-propyl-amino)-2-trifluoromethyl-benzonitrile] | 9.39 |
| CC[C@H](C)N(CC)c1ccc(C#N)c(C(F)(F)F)c1 [Example 27, 4-((S)-sec-Butyl-ethyl-amino)-2-trifluoromethyl-benzonitrile] | 7.32 |
| CC(C)N(C)c1ccc(C#N)c(Cl)c1 [Example 23, 2-Chloro-4-(isopropyl-methyl-amino)-benzonitrile] | 4.21 |
